The Ki is a dissociation constant, usually derived from enzyme kinetics or from competition with a known ligand.

Sequence of HPK1 (Q92918 whole entry T165E/S171E): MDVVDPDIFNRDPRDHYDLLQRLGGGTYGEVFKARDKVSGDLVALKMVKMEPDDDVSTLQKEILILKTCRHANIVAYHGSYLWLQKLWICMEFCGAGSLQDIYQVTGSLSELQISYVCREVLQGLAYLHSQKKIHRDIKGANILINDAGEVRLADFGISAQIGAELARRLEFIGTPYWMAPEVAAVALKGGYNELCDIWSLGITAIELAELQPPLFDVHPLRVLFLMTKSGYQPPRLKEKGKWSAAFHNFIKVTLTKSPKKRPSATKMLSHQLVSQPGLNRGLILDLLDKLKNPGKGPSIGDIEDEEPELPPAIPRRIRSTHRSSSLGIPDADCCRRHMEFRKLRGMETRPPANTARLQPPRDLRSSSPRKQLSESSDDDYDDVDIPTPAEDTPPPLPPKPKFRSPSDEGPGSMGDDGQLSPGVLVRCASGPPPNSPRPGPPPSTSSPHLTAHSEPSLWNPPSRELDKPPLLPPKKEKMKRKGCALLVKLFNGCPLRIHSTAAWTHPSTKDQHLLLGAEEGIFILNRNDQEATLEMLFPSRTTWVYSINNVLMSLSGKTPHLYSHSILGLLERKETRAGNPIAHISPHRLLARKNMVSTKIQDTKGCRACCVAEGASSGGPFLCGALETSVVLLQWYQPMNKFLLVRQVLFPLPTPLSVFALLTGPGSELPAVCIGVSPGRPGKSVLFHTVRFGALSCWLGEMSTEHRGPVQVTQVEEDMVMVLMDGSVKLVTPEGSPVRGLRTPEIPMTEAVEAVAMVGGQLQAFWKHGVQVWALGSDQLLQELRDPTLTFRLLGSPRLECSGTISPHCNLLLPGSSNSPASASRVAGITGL

The experiment has as its target HPK1 (Homo sapiens (Human), UniProt Q92918, S171E/T165E). In words: HPK1-FL HTRF Enzymatic Assay (HTRF). Format: biochemical. As to conditions: HPK full length T165E S171E 0.125 nM, ATP 1 mM, Biotin-SLP76 100 nM, read-out: HPK1 Ki (nM), H = HTRF. The procedure:
Exemplary compounds of Formula (I) were tested to assess compound inhibition of HPK-1. The Ki for each exemplary compound was determined
Example B1: HPK1-FL HTRF Enzymatic Assay (“HTRF”)
HPK-FL enzyme phosphorylates Biotin-SLP-76 substrate in the presence of ATP at 1 mM and varying concentrations of test compound. Product is detected by FRET using Eu-anti-pSLP76 Ab and SA-XL665. Also see www.cisbio.com/HTRF for additional HTRF technology information.
• Echo555 compound dispenser • Agilent Bravo • Perkin Elmer Envision Final Assay Conditions:
Materials: • Assay plate: White ProxiPlate 384 F (PerkinElmer cat #6008289) • Kinase: HPK full length double mutant • Substrate: Biotin-SLP76 • ATP: 100 mM ATP • BSG: 2% BSG • DMSO: DMSO (Sigma cat #34869-100ML) • Reaction Buffer: H2O/50 mM HEPES, pH 7.5/10 mM MgCl2/2 mM TCEP/0.01% Brij-35/0.01% BSG • Detection mix:Eu-anti-pSLP76/SA-XL665 (Cisbio, #610SAXAC) Assay Procedure Ki determination:
To a 384 well Proxiplate with 80 nL compound or DMSO spotted on was added 4 μl/well kinase mix. The mixture was preincubated for 30 minutes and then 4 μl/well substrate mix was added. The solution was incubated for 60 min and then 4 μl/well detection mix was added. The solution was incubated for another 60 min. The plates were then loaded onto a Perkin Elmer Envision and the TR-FRET signal was measured at 615 and 665 nm. A ratio of […] was used to calculate the % activity at each concentration of compound.
In general terms: In TR-FRET formats the signal depends on donor and acceptor labels being close together.
Take `Cc1c(-c2cc3cc(Nc4ccn([C@@H](C)C#N)n4)ncc3cc2F)cnc2c1NCCO2` (single isomer, unassigned) [Compound 109b, 2-(3-((7-fluoro-6-(8-methyl-2,3-dihydro-1H-pyrido[2,3-b][1,4]oxazin-7-yl)isoquinolin-3-yl)amino)-1H-pyrazol-1-yl)propanenitrile]: the Ki amounted to 1.19 nM. Turning to `Cc1c(-c2cc3cc(Nc4cc5n(n4)CC(=O)N(C(C)C)C[C@H]5O)ncc3cc2F)cnc2c1NCCO2` (single isomer, unassigned) [Compound 141a], the Ki stood at 0.033 nM.

In the case of `Cc1c(-c2cc3cc(Nc4cc5n(n4)CC(=O)N(C(C)C)CC5O)ncc3cc2F)cnc2c1NCCO2` (single isomer, unassigned) [Compound 141b], the inhibition constant (Ki) turned out to be 0.018 nM. With `Cc1c(-c2cc3cc(Nc4cc5n(n4)CC(=O)N([C@@H](C)C#N)CC5)ncc3cc2F)cnc2c1NCCO2` (single isomer, unassigned) [Compound 147a], the Ki came to 0.014 nM. Turning to `Cc1c(-c2cc3cc(Nc4cc5n(n4)CC(=O)N(C(C)C#N)CC5)ncc3cc2F)cnc2c1NCCO2` (single isomer, unassigned) [Compound 147b], the Ki was 0.013 nM.

Consider `Cc1c(-c2cc3cc(Nc4cc5n(n4)CC(=O)N([C@@H](C)CO)CC5)ncc3cc2F)cnc2c1NCCO2` (single isomer, unassigned) [Compound 148a], for which the Ki came to 0.013 nM. On to `Cc1c(-c2cc3cc(Nc4cc5n(n4)CC(=O)N(C(C)CO)CC5)ncc3cc2F)cnc2c1NCCO2` (single isomer, unassigned) [Compound 148b], for which the inhibition constant Ki was 0.013 nM.

For `Cc1c(N)cncc1-c1cc2cc(Nc3cc4n(n3)CC(=O)N([C@@H](C)CO)CC4)ncc2cc1F` (single isomer, unassigned) [Compound 149a], the Ki came to 0.043 nM.

For `Cc1c(N)cncc1-c1cc2cc(Nc3cc4n(n3)CC(=O)N(C(C)CO)CC4)ncc2cc1F` (single isomer, unassigned) [Compound 149b], the Ki came to 0.019 nM. On to `Cc1c(N)cncc1-c1cc2cc(Nc3cc4n(n3)CC(=O)N(C(C)C)C[C@H]4O)ncc2cc1F` (single isomer, unassigned) [Compound 153a], for which the Ki was found to be 0.064 nM.

As for `Cc1c(N)cncc1-c1cc2cc(Nc3cc4n(n3)CC(=O)N(C(C)C)CC4O)ncc2cc1F` (single isomer, unassigned) [Compound 153b], the Ki was 0.075 nM. The value for `Cc1c(N)cncc1-c1cc2cc(Nc3cc4n(n3)CC(=O)N([C@@H](C)C#N)CC4)ncc2cc1F` (single isomer, unassigned) [Compound 154a] was 0.014 nM; that for `Cc1c(N)cncc1-c1cc2cc(Nc3cc4n(n3)CC(=O)N(C(C)C#N)CC4)ncc2cc1F` (single isomer, unassigned) [Compound 154b] was 0.032 nM; that for `Cc1c(N)cncc1-c1cc2cc(Nc3cc4n(n3)CC(=O)N(C(C)(C)C)C[C@H]4F)ncc2cc1F` (single isomer, unassigned) [Compound 167a] was 0.128 nM. In the case of `Cc1c(N)cncc1-c1cc2cc(Nc3cc4n(n3)CC(=O)N(C(C)(C)C)CC4F)ncc2cc1F` (single isomer, unassigned) [Compound 167b], the Ki came out at 0.013 nM. Take `Cc1c(-c2cc3cc(Nc4cc5n(n4)CC(=O)N(C)CC5)ncc3cc2F)cnc2c1C(O)CCO2` (single isomer, unassigned) [Compound 180a, 2-((7-Fluoro-6-(4-hydroxy-5-methyl-3,4-dihydro-2H-pyrano[2,3-b]pyridine-6-yl)isoquinolin-3-yl)amino)-6-methyl-5,6-dihydro-4H-pyrazolo[1,5-d][1,4]diazepin-7(8H)-one]: the inhibition constant Ki stood at 0.05 nM. To `Cc1c(-c2cc3cc(Nc4cc5n(n4)CC(=O)N(C)CC5)ncc3cc2F)cnc2c1C(O)CCO2` (single isomer, unassigned) [Compound 180b, 2-((7-Fluoro-6-(4-hydroxy-5-methyl-3,4-dihydro-2H-pyrano[2,3-b]pyridine-6-yl)isoquinolin-3-yl)amino)-6-methyl-5,6-dihydro-4H-pyrazolo[1,5-d][1,4]diazepin-7(8H)-one] belongs 4.82 nM; to `Cc1c(N)cncc1-c1cc2cc(Nc3cc4n(n3)CC(=O)N(C)C[C@@]4(C)O)ncc2cc1F` (single isomer, unassigned) [Compound 185a], 0.169 nM; to `Cc1c(N)cncc1-c1cc2cc(Nc3cc4n(n3)CC(=O)N(C)CC4(C)O)ncc2cc1F` (single isomer, unassigned) [Compound 185b], 0.037 nM. Turning to `Cc1c(-c2cc3cc(Nc4cc5n(n4)CC(=O)N(C)CC54CC4)ncc3cc2F)cnc2c1NCC[C@H]2O` (single isomer, unassigned) [Compound 205a], the Ki came out at 0.013 nM.

For `Cc1c(-c2cc3cc(Nc4cc5n(n4)CC(=O)N(C)CC54CC4)ncc3cc2F)cnc2c1NCC[C@@H]2O` (single isomer, unassigned) [Compound 205b], the Ki was found to be 0.013 nM.

Consider `CN[C@@H]1CCN(c2cc(C)c(-c3cc4cc(Nc5cc6n(n5)CC(=O)N(C)CC6)ncc4cc3F)cn2)C1` (single isomer, unassigned) [Compound 206a], for which the Ki amounted to 6.7 nM. To `CN[C@H]1CCN(c2cc(C)c(-c3cc4cc(Nc5cc6n(n5)CC(=O)N(C)CC6)ncc4cc3F)cn2)C1` (single isomer, unassigned) [Compound 206b] belongs 6.2 nM; to `Cc1c(-c2cc3cc(Nc4cc5n(n4)CC(=O)N(C)CC5)ncc3cc2F)cnc2c1[C@@](C)(O)CCO2` (single isomer, unassigned) [Compound 226a], 18 nM. In the case of `Cc1c(-c2cc3cc(Nc4cc5n(n4)CC(=O)N(C)CC5)ncc3cc2F)cnc2c1[C@](C)(O)CCO2` (single isomer, unassigned) [Compound 226b], the Ki is 1.9 nM. With `CN[C@@H]1CCc2c(-c3cc4cc(Nc5cc6n(n5)CC(=O)N(C)CC6)ncc4cc3F)cncc21` (single isomer, unassigned) [Compound 228a], the Ki is 8.3 nM. Turning to `CN[C@H]1CCc2c(-c3cc4cc(Nc5cc6n(n5)CC(=O)N(C)CC6)ncc4cc3F)cncc21` (single isomer, unassigned) [Compound 228b], the Ki turned out to be 446 nM. Take `Cc1c(-c2cc3cc(Nc4cc5n(n4)CC(=O)N(C)CC54CC4)ncc3cc2F)cnc2c1NCC[C@]2(C)O` (single isomer, unassigned) [Compound 229a]: the Ki was determined as 0.09 nM. To `Cc1c(-c2cc3cc(Nc4cc5n(n4)CC(=O)N(C)CC54CC4)ncc3cc2F)cnc2c1NCC[C@@]2(C)O` (single isomer, unassigned) [Compound 229b] belongs 0.016 nM; to `Cc1c(-c2cc(F)c3cnc(Nc4cc5n(n4)CC(=O)N(C)CC5)cc3c2)cnc2c1NCC[C@@]2(C)O` (single isomer, unassigned) [Compound 231a], 1.3 nM; to `Cc1c(-c2cc(F)c3cnc(Nc4cc5n(n4)CC(=O)N(C)CC5)cc3c2)cnc2c1NCC[C@]2(C)O` (single isomer, unassigned) [Compound 231b], 0.38 nM.

For `CO[C@H]1CCNc2c1ncc(-c1cc(F)c3cnc(Nc4cc5n(n4)CC(=O)N(C)CC5)cc3c1)c2C` (single isomer, unassigned) [Compound 234a], the Ki came out at 0.46 nM. Turning to `CO[C@@H]1CCNc2c1ncc(-c1cc(F)c3cnc(Nc4cc5n(n4)CC(=O)N(C)CC5)cc3c1)c2C` (single isomer, unassigned) [Compound 234b], the Ki was found to be 2.1 nM. On to `Cc1c(-c2cc3cc(Nc4cc5n(n4)CC(=O)N(C)CC5)ncc3cc2F)cnc2c1[C@@H](F)CCO2` (single isomer, unassigned) [Compound 235a], for which the Ki is 2.1 nM. To `Cc1c(-c2cc3cc(Nc4cc5n(n4)CC(=O)N(C)CC5)ncc3cc2F)cnc2c1[C@H](F)CCO2` (single isomer, unassigned) [Compound 235b] belongs 0.127 nM; to `Cc1c(-c2cc3cc(Nc4cc5n(n4)CC(=O)N(C)CC5)ncc3cc2F)cnc2c1NCC[C@@H]2O` (single isomer, unassigned) [Compound 236a], 0.076 nM. In the case of `Cc1c(-c2cc3cc(Nc4cc5n(n4)CC(=O)N(C)CC5)ncc3cc2F)cnc2c1NCC[C@H]2O` (single isomer, unassigned) [Compound 236b], the Ki is 0.062 nM. For `Cc1c(-c2cc(F)c3cnc(Nc4cc5n(n4)CC(=O)N(C)CC54CC4)cc3c2)cnc2c1NCC[C@@H]2O` (single isomer, unassigned) [Compound 237a], the Ki came out at 0.332 nM.

As to `Cc1c(-c2cc(F)c3cnc(Nc4cc5n(n4)CC(=O)N(C)CC54CC4)cc3c2)cnc2c1NCC[C@H]2O` (single isomer, unassigned) [Compound 237b], the Ki amounted to 0.319 nM. Take `Cc1c(-c2cc3cc(Nc4cc5n(n4)CC(=O)N(C)CC5)ncc3cc2F)cnc2c1NCC(C)(C)[C@H]2O` (single isomer, unassigned) [Compound 241a]: the Ki is 0.11 nM. For the compound `Cc1c(-c2cc3cc(Nc4cc5n(n4)CC(=O)N(C)CC5)ncc3cc2F)cnc2c1NCC(C)(C)[C@@H]2O` (single isomer, unassigned) [Compound 241b], the Ki is 0.265 nM.
